Experimental data: patent US7132286B2, “Method for neural stem cell differentiation using valproate” (Psychiatric Genomics, Inc., priority 2001, dated 2006)
“Also recorded” adds a separate entry of the source.

What was measured:
[1] = tested on: glutamate decarboxylase (GAD); assay: Western blot of GAD 65/67 expression in rat cortical stem cell cultures; format: cell-based; conditions: 0.5 mM valproate
Method: Western blotting. Cells were plated at 1×10^6 cells/100 mm dish in poly-1-ornithine-coated 10 cm dishes and treated as described supra. Denatured proteins were separated on 8% polyacrylamide Tris-Glycine gels (Novex) and transferred to nitrocellulose membranes (BioRad). Membranes were probed with antibodies against rabbit anti-GAD 65/67 (Sigma) at 1:10,000 and HRP-conjugated anti-rabbit (Jackson Immunolabs) at 1:10,000 respective dilutions. Antigen-antibody complexes were visualized using a SuperSignal West Pico Chemiluminescent Kit (Pierce).

rat cortical stem cells [2] = assay: Differentiation of rat cortical stem cells into GABA expressing cells (GABA immunocytochemistry); format: cell-based; conditions: 6 days valproate vs control
Method: (§1) Drug treatment. For immunofluorescence and Western analysis, cells were treated daily with either 0.5 mM of valproate (Sigma), 10 ng/ml of BDNF (R & D Systems), 20 ng/ml of NT-3 (R & D Systems), 1 nM 9cis retinoic acid (Sigma) or a dilution of NCM for 6 or 7 days. In some experiments valproate was also added with NCM and/or 9cis RA for 7 days. For human stem cell experiments, valproate (0.5 mM) or BDNF (25 ng/ml) was added for 9 days. For neurite outgrowth experiments, cells were treated for 1 day with 0.5 mM valproate or 50 ng/ml of BDNF. Where applicable, medium was changed every 2 days. After about 5–10 days, preferably on day 6 (i.e., after 6 days of drug exposure) the cells were fixed with a 4% solution of para-formaldehyde (PFA) in PBS, prepared as follows: Immunofluorescent staining and visualization. Cells were plated at 20,000 cells/well in poly-L-ornithine/fibronectin (1 mg/ml) coated 24-well plates. […] For immunofluorescence, 3 different black and white pictures were taken by field of interest with a digital camera CoolSnap Fx (Princeton) corresponding to the exposure of Cy2, Cy3 and Hoechst fluorescence. […] The percentage of neurons, astrocytes and GABAergic cells was determined by comparing the number of cells immunopositive for β-tubulin III, GFAP and GABA to the number of bis-benzamide stained nuclei (i.e., total cell number). […]

rat cortical stem cells [3] = assay: Astrocyte differentiation of rat cortical stem cells (GFAP immunofluorescence); format: cell-based; conditions: 6 days valproate vs control
Method: as §1

[4] = tested on: teratocarcinoma cell line NTera-2; conditions: NTera-2 cells (Skladchikova et al.); cited from earlier work

With CCCC(CCC)C(=O)O [valproate, 2-Propylpentanoic acid] the GAD expression ([1]; 3 and 6 days) was “GAD expression was increased; also recorded: increases GAD expression after 3 and 6 days”, the GAD expression ([1]; 1 day) was “No expression of GAD was detectable” and the “number and percentage of cells immuno-positive for GABA” value (rat cortical stem cells [2]) was “dramatic increase in the number; also recorded: increase in the number of GABA-positive neurons”. The “expression of GFAP (astrocyte marker)” value (rat cortical stem cells [3]) was “dramatically inhibited” and the “proliferation and retinoic acid-induced neuronal differentiation” value [4] was “inhibit the proliferation and block retinoic acid-induced neuronal differentiation”.
